In one series the test system is MCF7. In words: In-vitro antitumor activity against human MCF7 cells incubated for 72 hrs by CCK8 assay. Conditions: MCF7, 72 h. The format is functional, cell-based. For orientation: Formazan colour is commonly taken as a measure of viable cells.
In series [1] the test system is HCT-116. Nature of the series: In-vitro antitumor activity against human HCT-116 cells incubated for 72 hrs by CCK8 assay. The format is functional, cell-based. To be noted: HCT-116, 72 h.
For the next series, the system named is A549. In words: In-vitro antitumor activity against human A549 cells incubated for 72 hrs by CCK8 assay. It is filed as functional, cell-based. To be noted: A549, 72 h.
The nature of series [2]: In-vitro cytotoxic activity against human HUVEC cells incubated for 72 hrs by CCK8 assay. The format is toxicity, cell-based.
The subject of series [3] is HCT-116. Nature of the series: Inhibition of cell migration of human HCT-116 cells at 0.25 uM incubated for 24 hrs by wound healing assay. The format is functional, cell-based.
Series [4] has as its system HCT-116. In words: Inhibition of cell colony formation of human HCT-116 cells at 0.025 to 0.5 uM by clonogenicity assay. It is filed as functional, cell-based. Conditions: dose 0.025-0.5 µM.
The test system of series [5] is HCT-116. In words: Induction of apoptosis in human HCT-116 cells assessed as increase in cytochrome C protein expression at 0.05 to 1.5 uM incubated for 24 hrs by Western blot analysis. The format is functional, cell-based. Conditions: dose 0.05-1.5 µM.
Series [6] concerns HCT-116. Nature of the series: Induction of cell cycle arrest in human HCT-116 cells assessed as accumulation at S phase at 0.05 uM incubated for 48 hrs by flow cytometry (reference value: 34.21%). The format is functional. A general note: A flow cytometer gives signals particle by particle.
Series [7] deals with HCT-116. In words: Induction of apoptosis in human HCT-116 cells assessed as reduction in p53 protein expression at 1.5 uM incubated for 24 hrs by Western blot analysis. It is filed as functional, cell-based.
Series [8] concerns HCT-116. In words: Induction of cell cycle arrest in human HCT-116 cells assessed as accumulation at S phase at 0.01 uM incubated for 48 hrs by flow cytometry (reference value: 34.21%). It is filed as functional.
Series [9] relates to HCT-116. In words: Induction of cell cycle arrest in human HCT-116 cells assessed as reduction in Cdc25c expression at 0.05 to 1.5 uM incubated for 24 hrs by Western blot analysis. It is filed as functional, cell-based. To be noted: dose 0.05-1.5 µM. For orientation: A western blot detects proteins with antibodies after separation by electrophoresis.
For series [10], the system named is HCT-116. Nature of the series: Induction of apoptosis in human HCT-116 cells at 0.1 uM incubated for 48 hrs by Annexin V/PI staining based flow cytometry (reference value: 3.86%). It is filed as functional.
For series [11], the system named is HCT-116. In words: Induction of cell cycle arrest in human HCT-116 cells assessed as accumulation at G1 phase at 0.25 uM incubated for 48 hrs by flow cytometry (reference value: 33.16%). It is filed as functional.
The subject of series [12] is HCT-116. In words: Induction of cell cycle arrest in human HCT-116 cells assessed as accumulation at S phase at 0.25 uM incubated for 48 hrs by flow cytometry (reference value: 34.21%). The format is functional.
Series [13] relates to HCT-116. In words: Induction of apoptosis in human HCT-116 cells at 0.05 to 0.25 uM incubated for 48 hrs by Annexin V/PI staining based flow cytometry. It is filed as functional, cell-based. To be noted: dose 0.05-0.25 µM, DDE = dose-dependent effect.
In series [14] the test system is HCT-116. In words: Induction of apoptosis in human HCT-116 cells at 0.15 uM incubated for 48 hrs by Annexin V/PI staining based flow cytometry (reference value: 3.86%). The format is functional.
Series [15] deals with HCT-116. In words: Inhibition of cell migration of human HCT-116 cells at 0.01 to 0.15 uM incubated for 24 hrs by wound healing assay. The format is functional, cell-based. To be noted: dose 0.01-0.15 µM.
Series [16] relates to HCT-116. In words: Induction of cell cycle arrest in human HCT-116 cells assessed as increase in Cyclin B1 expression at 0.05 to 1.5 uM incubated for 24 hrs by Western blot analysis. Conditions: dose 0.05-1.5 µM. It is filed as functional, cell-based.
The test system of series [17] is HCT-116. Nature of the series: Induction of cell cycle arrest in human HCT-116 cells assessed as accumulation at G2/M phase at 0.25 uM incubated for 48 hrs by flow cytometry (reference value: 32.63%). The format is functional.
Series [18] has as its system HCT-116. In words: Induction of apoptosis in human HCT-116 cells assessed as reduction in cytochrome C protein expression at 1.5 uM incubated for 24 hrs by Western blot analysis. The format is functional, cell-based.
Series [19] has as its system HCT-116. In words: Induction of cell cycle arrest in human HCT-116 cells assessed as accumulation at G2/M phase at 0.05 uM incubated for 48 hrs by flow cytometry (reference value: 32.63%). It is filed as functional.
The test system of series [20] is HCT-116. In words: Induction of cell cycle arrest in human HCT-116 cells assessed as accumulation at G2/M phase at 0.01 uM incubated for 48 hrs by flow cytometry (reference value: 32.63%). The format is functional.
Series [21] concerns HCT-116. Nature of the series: Inhibition of cell proliferation of human HCT-116 cells at 0.01 to 10 uM incubated for 48 hrs by RTCA assay. The format is functional. To be noted: dose 0.01-10 µM.
Series [22] has as its system HCT-116. Nature of the series: Induction of apoptosis in human HCT-116 cells assessed as decrease in Bcl-2 protein expression at 0.05 to 1.5 uM incubated for 24 hrs by Western blot analysis. Conditions: dose 0.05-1.5 µM. The format is functional, cell-based.
The test system of series [23] is HCT-116. Nature of the series: Induction of apoptosis in human HCT-116 cells at 0.25 uM incubated for 48 hrs by Annexin V/PI staining based flow cytometry (reference value: 3.86%). The format is functional.
Series [24] deals with HCT-116. Nature of the series: Induction of cell cycle arrest in human HCT-116 cells assessed as accumulation at G1 phase at 0.01 uM incubated for 48 hrs by flow cytometry (reference value: 33.16%). It is filed as functional.
The subject of series [25] is HCT-116. Nature of the series: Induction of apoptosis in human HCT-116 cells assessed as increase in p53 protein expression at 0.05 to 1.5 uM incubated for 24 hrs by Western blot analysis. The format is functional, cell-based. Conditions: dose 0.05-1.5 µM.
In series [26] the test system is HCT-116. Nature of the series: Induction of apoptosis in human HCT-116 cells assessed as increase in Bax protein expression at 0.05 to 1.5 uM incubated for 24 hrs by Western blot analysis. The format is functional, cell-based. Conditions: dose 0.05-1.5 µM.
Series [27] relates to HCT-116. Nature of the series: Induction of apoptosis in human HCT-116 cells at 0.05 uM incubated for 48 hrs by Annexin V/PI staining based flow cytometry (reference value: 3.86%). The format is functional.
Series [28] deals with HCT-116. Nature of the series: Induction of cell cycle arrest in human HCT-116 cells assessed as accumulation at G1 phase at 0.05 uM incubated for 48 hrs by flow cytometry (reference value: 33.16%). It is filed as functional.

Values after ≈ are worked out from the molar mass of the structure shown. Active and inactive are the calls of the source. The calls are words filed in the database; no cut-off is given here.

As usually defined, the IC50 is the concentration at which inhibition is half-maximal. `CN1c2ccc(F)cc2C(=O)N2CCc3c([nH]c4ccc(OC(=O)CCSSCCC(=O)Oc5ccc6[nH]c7c(c6c5)CCN5C(=O)c6cc(F)ccc6N(C)C75)cc34)C21` (configuration not stated): the IC50 with MCF7 stood at 410 nM; in the series on HCT-116 [1], 170 nM; in the series with A549, 610 nM. In [2], this compound displayed an IC50 at 72 h of 130 nM.
As to `CN1c2ccc(F)cc2C(=O)N2CCc3c([nH]c4ccc(OC(=O)CCC(=O)Oc5ccc6[nH]c7c(c6c5)CCN5C(=O)c6cc(F)ccc6N(C)C75)cc34)C21` (configuration not stated), the IC50 stood at 890 nM in the series with MCF7, 32 nM in the series on HCT-116 [1] and 680 nM in the series with A549. Also, the IC50 at 72 h in series [2] was 210 nM.
Regarding `CN1c2ccc(F)cc2C(=O)N2CCc3c([nH]c4ccc(O)cc34)C21` (configuration not stated), the IC50 in the series on MCF7 is 44 nM; in the series on HCT-116 [1] it was 73 nM; in the series on A549 it was 460 nM. Further, the inhibition result in the series on HCT-116 [3] is “Active”. In addition, in series [2], the IC50 at 72 h is 260 nM.
`CC[C@@]1(O)C(=O)OCc2c1cc1n(c2=O)Cc2cc3ccccc3nc2-1` [CAMPTOTHECIN]: the IC50 in the series with MCF7 was found to be 21 nM; in the series with HCT-116 [1], 40 nM; with A549 it was 74 nM. This compound showed an IC50 at 72 h in series [2] of 12 nM.
By MIC is commonly meant the lowest concentration found to suppress growth. A high value points to a need for much substance. For the compound `CN1c2ccc(F)cc2C(=O)N2CCc3c([nH]c4ccc(OC(=O)CCCC(=O)Oc5ccc6[nH]c7c(c6c5)CCN5C(=O)c6cc(F)ccc6N(C)C75)cc34)C21` (configuration not stated), the inhibition result in the series on HCT-116 [4] and with HCT-116 [15] was “Active” throughout. The outcome in the series with HCT-116 [5], with HCT-116 [7], in the series with HCT-116 [9], in the series on HCT-116 [16], in the series on HCT-116 [18] and in the series on HCT-116 [22] was Active. Besides, the result in the series on HCT-116 [25] and in the series with HCT-116 [26] was Active. The Activity with HCT-116 [6] is 0%; in the series with HCT-116 [8] it was 26.96%; with HCT-116 [10] it was 54.32%; with HCT-116 [11], 34.77%; in the series on HCT-116 [12], 0%; in the series with HCT-116 [13], “Dde”. The Activity with HCT-116 [14] was 58.73%; in the series with HCT-116 [17], 65.23%; with HCT-116 [19], 59.8%; in the series with HCT-116 [20], 30.43%; with HCT-116 [23], 75.11%; in the series with HCT-116 [24] it was 42.61%. Further, the Activity in the series on HCT-116 [27] is 47.78%; in the series with HCT-116 [28] it was 40.2%. For the same compound, the IC50 amounted to 200 nM in the series with MCF7, 32 nM in the series with HCT-116 [1] and 730 nM in the series with A549. Moreover, the MIC in the series with HCT-116 [21] was 0.01 µM (≈ 7.71 ng/mL). The inhibition entry in the series on HCT-116 [21] (DDE = dose-dependent effect) is “Dde”. Also, the IC50 at 72 h in [2] was found to be 580 nM.

The record behind these values is ChEMBL document CHEMBL5143702, “Discovery of novel bis-evodiamine derivatives with potent antitumor activity” (Bioorg Med Chem, 2022).
